Experiment [1] addresses rat orexin 1 receptor (Rattus norvegicus, UniProt P56718). Description: Rat orexin 1 receptor radioligand binding (competitive). The conditions noted are these: HEK293 cells stably expressing rat orexin 1 receptor; 4 nM radioligand; averages of 2-20 runs; read-out: rOX1 Ki. Summed up:
(§1)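 Competition binding used HEK293 cells expressing rat OX1 or CHO cells expressing human OX1, with 4 nM final [3H]-labelled thiazolyl-oxadiazolyl-pyrrolidinyl methanone radioligand in PBS. Compounds were tested at 7 concentrations (0.1 nM–10 μM) for 60 min at room temperature, then filtered; 10 μM almorexant defined nonspecific binding. Ki was derived from the one-site IC50 and the radioligand Kd.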

The target in experiment [2] is human orexin 1 receptor (Homo sapiens (Human), UniProt O43613). Briefly: Human orexin 1 receptor radioligand binding (competitive). The conditions noted are these: CHO cells stably expressing human orexin 1 receptor; 4 nM radioligand; averages of 2-20 runs; read-out: hOX1 Ki. Summed up:
as §1

In experiment [3] the target is human orexin 2 receptor (Homo sapiens (Human), UniProt O43614). Description: Human orexin 2 receptor radioligand binding ([3H]-EMPA competition). The conditions noted are these: HEK293 stably expressing human orexin 2 receptor; 2 nM [3H]-EMPA; averages of 2-20 runs; read-out: hOX2 Ki. Summed up:
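Membranes-free whole HEK293 cells stably expressing human OX2 receptor incubated with [3H]-EMPA and compound (7 concentrations, 0.1 nM–10 μM, ≤0.1% DMSO) for 60 min at room temperature; nonspecific binding with 10 μM almorexant. Filtration and scintillation counting; one-site IC50 converted to Ki using predetermined Kd, triplicates averaged over 2-20 runs.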

In general, Ki refers to the equilibrium dissociation constant of an inhibitor or competing ligand from its target.

human orexin 1 receptor, sequence (O43613 whole entry): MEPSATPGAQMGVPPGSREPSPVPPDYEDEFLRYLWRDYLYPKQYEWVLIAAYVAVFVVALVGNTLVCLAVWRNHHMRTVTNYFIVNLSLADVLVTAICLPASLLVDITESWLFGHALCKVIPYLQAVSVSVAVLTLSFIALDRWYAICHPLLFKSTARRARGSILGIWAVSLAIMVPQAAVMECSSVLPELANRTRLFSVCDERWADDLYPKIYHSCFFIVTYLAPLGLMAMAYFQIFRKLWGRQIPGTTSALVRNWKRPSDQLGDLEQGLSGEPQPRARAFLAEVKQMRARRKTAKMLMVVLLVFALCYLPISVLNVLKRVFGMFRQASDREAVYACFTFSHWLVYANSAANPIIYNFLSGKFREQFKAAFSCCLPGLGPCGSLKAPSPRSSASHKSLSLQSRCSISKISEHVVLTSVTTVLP
human orexin 2 receptor, sequence (O43614 whole entry): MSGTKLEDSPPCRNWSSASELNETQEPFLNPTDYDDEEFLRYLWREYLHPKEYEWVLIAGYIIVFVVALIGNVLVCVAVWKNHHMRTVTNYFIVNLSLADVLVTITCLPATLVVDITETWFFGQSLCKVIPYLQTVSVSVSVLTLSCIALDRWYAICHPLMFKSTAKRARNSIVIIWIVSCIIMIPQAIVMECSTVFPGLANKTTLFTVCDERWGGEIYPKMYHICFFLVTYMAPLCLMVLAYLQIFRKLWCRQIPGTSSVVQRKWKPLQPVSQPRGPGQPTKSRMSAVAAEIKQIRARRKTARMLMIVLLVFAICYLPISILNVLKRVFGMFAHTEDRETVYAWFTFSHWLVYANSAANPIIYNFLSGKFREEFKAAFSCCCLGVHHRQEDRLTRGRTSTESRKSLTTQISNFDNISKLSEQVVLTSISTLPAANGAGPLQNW

Regarding `C[C@@H]1[C@@H]2CC[C@@H]([C@@H](Oc3ccc(C(F)(F)F)cn3)C2)N1C(=O)c1cccc(F)c1-c1ncccn1` [Example 162, (3-fluoro-2-pyrimidin-2-yl-phenyl)-[(1R,2R,4S,5S)-2-methyl-5-[[5-(trifluoromethyl)-2-pyridyl]oxy]-3-azabicyclo[2.2.2]octan-3-yl]methanone], the figures for the inhibition constant (Ki) in experiment [1], in experiment [2] and in experiment [3] were 0.236 µM, 0.106 µM and greater than 10 µM, respectively.

As to `C[C@@H]1[C@H]2C[C@@H](Oc3ccc(C(F)(F)F)cn3)[C@H](C2)N1C(=O)c1ccccc1-n1ncc(CCCF)n1` [Example 168, [2-[4-(3-fluoropropyl)triazol-2-yl]phenyl]-[(1R,2R,4S,5R)-2-methyl-5-[[5-(trifluoromethyl)-2-pyridyl]oxy]-3-azabicyclo[2.2.1]heptan-3-yl]methanone], the Ki in experiment [1] is 0.014 µM; in experiment [2] it was 0.02 µM; in experiment [3] it was 1.39 µM.

As for `C[C@@H]1[C@H]2C[C@@H](Oc3ccc(C(F)(F)F)cn3)[C@H](C2)N1C(=O)c1ccccc1-c1ccc(F)nc1` [Example 171, [2-(6-fluoro-3-pyridyl)phenyl]-[(1R,2R,4S,5R)-2-methyl-5-[[5-(trifluoromethyl)-2-pyridyl]oxy]-3-azabicyclo[2.2.1]heptan-3-yl]methanone], the inhibitory constant (Ki) stood at 0.023 µM in experiment [1], 0.017 µM in experiment [2] and 1.6 µM in experiment [3].

Regarding `C[C@@H]1[C@H]2C[C@@H](Oc3ccc(C(F)(F)F)cn3)[C@H](C2)N1C(=O)c1ccccc1-c1ccnc(F)c1` [Example 172, [2-(2-fluoro-4-pyridyl)phenyl]-[(1R,2R,4S,5R)-2-methyl-5-[[5-(trifluoromethyl)-2-pyridyl]oxy]-3-azabicyclo[2.2.1]heptan-3-yl]methanone], the inhibitory constant (Ki) in experiment [1] was 0.066 µM; in experiment [2] it was 0.067 µM; in experiment [3] it was greater than 10 µM.

With `C[C@@H]1[C@H]2C[C@@H](Oc3ccc(C(F)(F)F)cn3)[C@H](C2)N1C(=O)c1ccccc1-c1cccc([N+](=O)[O-])n1` [Example 174, [(1R,2R,4S,5R)-2-methyl-5-[[5-(trifluoromethyl)-2-pyridyl]oxy]-3-azabicyclo[2.2.1]heptan-3-yl]-[2-(6-nitro-2-pyridyl)phenyl]methanone], the Ki came to 0.008 µM in experiment [1], 0.009 µM in experiment [2] and 3.94 µM in experiment [3].

On to `C[C@@H]1[C@H]2C[C@@H](Oc3ccc(C(F)(F)F)cn3)[C@H](C2)N1C(=O)c1ccccc1-c1cccc(Br)n1` [Example 175, [2-(6-bromo-2-pyridyl)phenyl]-[(1R,2R,4S,5R)-2-methyl-5-[[5-(trifluoromethyl)-2-pyridyl]oxy]-3-azabicyclo[2.2.1]heptan-3-yl]methanone], for which the Ki in experiment [1] amounted to 0.013 µM; in experiment [2], 0.015 µM; in experiment [3], 0.837 µM.

Take `Cc1ccc(-n2nccn2)c(C(=O)N2[C@H](CO)[C@@H]3CC[C@H]2[C@H](Oc2ccc(C(F)(F)F)cn2)C3)n1` [Example 176, [(1R,2S,4S,5R)-2-(hydroxymethyl)-5-[[5-(trifluoromethyl)-2-pyridyl]oxy]-3-azabicyclo[2.2.2]octan-3-yl]-[6-methyl-3-(triazol-2-yl)-2-pyridyl]methanone]: the values for the inhibitory constant (Ki) in experiment [1], in experiment [2] and in experiment [3] were 0.033 µM, 0.035 µM and 8.1 µM, respectively.

In the case of `Cc1ccc(C(=O)N2[C@H](C)[C@H]3C[C@@H](Oc4ccc(Cl)cn4)[C@@H]2C3)c(-n2nccn2)n1` [Example 193, [(1R,2R,4S,5R)-5-[(5-chloro-2-pyridyl)oxy]-2-methyl-3-azabicyclo[2.2.1]heptan-3-yl]-[6-methyl-2-(triazol-2-yl)-3-pyridyl]methanone], the results for the Ki in experiment [1], in experiment [2] and in experiment [3] were 0.008 µM, 0.008 µM and 4.7 µM, respectively.

On to `Cc1cnc(-n2nccn2)c(C(=O)N2[C@H](C)[C@H]3C[C@@H](Oc4ccc(Cl)cn4)[C@@H]2C3)c1` [Example 194, [(1R,2R,4S,5R)-5-[(5-chloro-2-pyridyl)oxy]-2-methyl-3-azabicyclo[2.2.1]heptan-3-yl]-[5-methyl-2-(triazol-2-yl)-3-pyridyl]methanone], for which the values for the Ki in experiment [1], in experiment [2] and in experiment [3] were 0.005 µM, 0.005 µM and 2.9 µM, respectively.

The values are drawn from patent publication US9611262B2, “Substituted 2-azabicycles and their use as orexin receptor modulators” (JANSSEN PHARMACEUTICA NV, priority 2014, dated 2017).
